# Assay results: the supplement of paper PMC3974653
# Counter-ions that a name gives are not always drawn.
# Test system: MTT (mouse pheochromocytoma)
# Experiment: IC50 of cell viability (ATP content)
# Settings: (24 or 48 h)
# Procedure, shortened: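 MTT mouse pheochromocytoma cells (5 µl of 200,000 cells/ml per well, white 1536-well plates, DMEM with 5% FBS and 1% horse serum) were cultured overnight at 37°C, 5% CO2. They then received 23 nl library compound in DMSO by pintool at 8 concentrations (final 0.5 nM to 46 µM) for 24 or 48 hrs. CellTiter-Glo ATP luminescence was read after 15 minutes. Signals were normalised to positive-control (100% inhibition) and DMSO (0%) wells, and IC50 came from a four-parameter logistic fit.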
row,SMILES,IC50 of cell viability [µM]
1,C/C(=C\c1csc(C)n1)[C@@H]1C[C@@H]2O[C@]2(C)CCC[C@H](C)[C@H](O)[C@@H](C)C(=O)C(C)(C)[C@@H](O)CC(=O)O1 [EPOTHILONE B],> 46
2,CC(=O)Oc1c(C)cc(OCC(O)CNC(C)C)c(C)c1C (stereo unspecified) [Metipranolol],> 46
3,CNC(=O)C(N)CSC(C)C1=C(C)C2=Cc3c(C(C)SCC(N)C(=O)NC)c(C)c4[n]3[Fe]35[n]6c(c(C)c(CCC(=O)O)c6=CC6=[N+]3C(=C4)C(C)=C6CCC(=O)O)=CC1=[N+]25 (stereo unspecified) [CYTOCHROME C],> 46
4,CCC1(CC2=C(O1)C=CC=C2)\C3=N\CCN3 (stereo unspecified) [EFAROXAN],> 46
5,c1cc2c(c(N3CCNCC3)c1)OCCO2 [ELTOPRAZINUM],> 46
6,CCCCCCCCCCCCCCCCCCOCC(O)CO (stereo unspecified) [BATYL ALCOHOL],> 46
7,N=C(N)NN.O=[S+]([O-])(O)O [2-AMINOGUANIDINE HEMISULFATE],> 46
8,N[S+](=O)([O-])Cc1noc2ccccc12 [Zonisamide],> 46
9,"CCN(CC)CCO[C@H]1CC[C@@]2(C)C(=CC[C@@H]3C2CC[C@]2(C)C(=O)CCC32)C1 (stereo in doubt) [3b-(2-Diethylaminoethoxy)androst-5-en-17-one, HCl]",> 46
10,N=C(N/N=C/c1ccc(Cl)cc1)N/N=C/c1ccc(Cl)cc1 [ROBENIDINE HYDROCHLORIDE],> 46
11,C=C[C@]1(C)C[C@@H](OC(=O)CO)[C@]2(C)C(C)CC[C@]3(CCC(=O)[C@H]32)[C@@H](C)[C@@H]1O (stereo partly specified) [Pleuromutilin],> 46
12,"CNC[C@H](O)c1ccc(O)cc1 (racemic) [(+,-)-Synephrine]",> 46
13,CC(C)=CCOc1ccc(/C=C/C(=O)c2ccc(OCC=C(C)C)cc2OCC(=O)O)cc1 [Sofalcone],> 46
14,O=C(O)CC(O)C(=O)O.[NaH] (stereo unspecified) [MALIC ACID],> 46
15,C#C[C@]1(O)CC[C@H]2[C@@H]3CCC4=CC(=O)CCC4(C)[C@H]3CCC21C (stereo partly specified) [ETHISTERONUM],> 46
16,"CC1[C@H]2Cc3ccc(O)cc3[C@]1(C)CCN2C (single isomer, unassigned; (-)) [(-)-Metazocine]",> 46
17,CC(C)=CCC[C@](C)(O)C1CC\C(=C/C1)C (stereo partly specified) [BISABOLOL],> 46
18,OCCOc1ccccc1 [Ethylene glycol monophenyl ether],> 46
19,CN1C=C(C2=CC=CC=C12)C3=C(/C(=O)NC\3=O)C4=CN(C5CCN(CC6=NC=CC=C6)CC5)C7=C4C=CC=C7 [Enzastaurin],> 46

# Next, values leading:
row,IC50 of cell viability [µM],SMILES
1,> 46,CCOC(=O)O[C@]1(C(=O)OCCl)CC[C@H]2[C@@H]3CCC4=CC(=O)C=C[C@]4(C)[C@H]3[C@@H](O)C[C@@]21C [Loteprednol etabonate]
2,> 46,C#CCN[C@@H]1CCc2ccccc21 [RASAGILINE MESYLATE]
3,> 46,CCc1ccc(C(=O)C(C)CN2CCCCC2)cc1 (stereo unspecified) [EPERISONE HYDROCHLORIDE]
4,> 46,Clc1ccc(C(Cn2ccnc2)OCc2ccsc2Cl)c(Cl)c1 (stereo unspecified) [TIOCONAZOLE]
5,> 46,CCN(CC)CCNC(=O)COc1ccc(OC)cc1.Cl [MEFEXAMIDE]
6,> 46,COc1ncnc(N[S+](=O)([O-])c2ccc(N)cc2)c1OC [Sulfadoxine]
7,> 46,Nc1ccc([S+](=O)([O-])NC(=O)c2ccccc2)cc1 [Sulfabenzamide]
8,> 46,CCOC(=O)[C@H](CCc1ccccc1)N[C@@H](C)C(=O)N1C(=O)N(C)C[C@H]1C(=O)O [IMIDAPRIL HYDROCHLORIDE]
9,> 46,CCOC(=O)COc1ccc2c(=O)cc(-c3ccccc3)oc2c1 [Efloxate]
10,> 46,C[S+](=O)([O-])c1ccc([C@@H](O)[C@@H](COC(=O)CN)NC(=O)C(Cl)Cl)cc1 [THIAMPHENICOL AMINOACETATE HYDROCHLORIDE]
11,> 46,CCC(=O)OCC(=O)C1(OC(=O)CC)C(C)CC2C3CCC4=CC(=O)C=CC4(C)C3(F)C(O)CC21C (stereo unspecified) [Betamethasone dipropionate]
12,> 46,COc1cc(C(=O)N2CCCCCCC2)cc(OC)c1OC [TROCIMINUM]
13,> 46,CC[C@H](NC(C)C)[C@H](O)C1=CC=C(O)C2=C1\C=C/C(=O)N2 [PROCATEROL]
14,> 46,C[C@]12CC[C@H]3c4ccc(O)cc4CC[C@@H]3[C@H]1CC[C@@H]2OC(=O)CCC1CCCC1 [Depoestradiol]
15,> 46,O=C1c2ccccc2[S+](=O)([O-])N1CCCCN1CCN(c2ncccn2)CC1 [Ipsapirone]
16,> 46,NC(=O)NC(=O)Cc1ccccc1 [PHENACEMIDE]
17,> 46,CN1[C@@H](CC(=O)c2ccccc2)CCC[C@H]1C[C@H](O)c1ccccc1 [LOBELINE]
